Here are results for two compounds from PMC11973282, “RAS70 peptide targets multiforme glioblastoma by binding to the plasma membrane heat shock protein HSP70” (Frontiers in Oncology, 2025).

For data set [1], the system named is mHsp70-negative dermal fibroblasts. Briefly: Flow cytometry of FITC-labeled peptide internalization, negative control cells. Format: cell-based.
The subject of data set [2] is U87 cells (lower chamber; HUVEC and astrocytes barrier). Briefly: Transwell BBB model, peptide passage and accumulation in tumor cells (also with antibody pre-treatment). Format: in vitro ADME, human. As to conditions: transwell BBB model: HUVEC (5×10^5) and astrocytes (5×10^5) in upper chamber, U87 (1×10^4) in lower chamber; FITC-labeled peptide; 36 hours; confocal microscopy count; M ± SE, 3 independent experiments. From the text: Fluorescently labeled cells were counted in the lower chamber.
Next, we assessed the mHsp70- and integrin (αvβ3, αvβ5)-mediated penetration of the TKD and RAS70 via the BBB ( Figure 9B ). […] When anti-αvβ3 and anti-αvβ5 mAbs were employed, we detected the decrease of NGL-RGD and RAS70 penetration via the BBB but not the NGL and TKD peptides.

Data set [3] relates to human U87 glioblastoma cells. Briefly: Flow cytometry of FITC-labeled peptide internalization, 24 h (also with antibody pre-treatment). As to conditions: for peptide internalization after pre-treatment with anti-Hsp70 antibodies: cells pre-treated with anti-Hsp70 mAbs SPA-810, SPA-815 (1:250); for peptide uptake after pre-treatment with both anti-Hsp70 and anti-αvβ3/-αvβ5 mAbs: combination of antibodies; for mean fluorescence intensity (MFI), internalization of FITC-labeled peptide: U87, 50 μg/mL, 24 hours, flow cytometry, M ± SE, 3 independent experiments. Format: cell-based. The method, then:
(§1) The binding of the TKD-sCy5, RAS70-sCy5, and NGL-RGD-sCy5 peptides were analyzed using a CytoFLEX flow cytometer (Beckman Coulter, USA). A single cell suspension of C6, GL261, T98G, U87, U251, ANI, IBD, TMS (0.15×10^6 cells in mL^-1) were incubated for 30 minutes on ice in the dark with peptides in concentration of 75 μg/mL, and then washed with cold PBS solution. Cells without peptides were used as controls. To evaluate incorporation of the fluorescently-labeled peptides for longer period of co-incubation of 24 h cells (C6, GL261, U87, U251) were treated with FITC-labeled peptides, then washed with PBS and assessed on a CytoFLEX flow cytometer (Beckman Coulter, USA). Following FACS analysis cell pellet was further evaluated employing confocal microscopy Leica TCS SP8 (Leica Microsystems, Germany).
(§2) The incorporation of peptides over longer periods of co-incubation with brain tumor cells was additionally analyzed using a Cytomics FC500 flow cytometer (BeckmanCoulter, USA). Tumor cells (C6, GL261, U87, U251) were incubated with peptides (concentration 50 μg/mL) for 24 hours, washed with PBS. Internalization of FITC-labeled peptides was assessed by determining the mean fluorescence intensity (MFI). According to the study data ( Figure 6A ), it was shown that TKD peptide accumulated in all cell lines – 2120 ± 152 (C6), 2099 ± 107 (GL261), 2145 ± 189 (U87), 2373 ± 201 (U251) compared to the control scramble peptide (NGL) – 378 ± 48 (C6), 344 ± 57 (GL261), 301 ± 66 (U87), 313 ± 56 (U251) (P<0.001). […] Following FACS analysis the cell pellet was collected and evaluated for peptides cell uptake employing confocal microscopy ( Figure 6B ). The obtained microscopy data confirmed higher accumulation of RAS70 peptide in studied cell lines as compared to TKD or scramble peptides.
(§3) Figure 6 Evaluation of the mHsp70-targeting peptides internalization by glioma cells. (A) Flow cytometric evaluation of FITC-labeled peptide accumulation in tumor cell lines (rat glioma C6, mouse glioma GL261, human glioblastoma U87 and U251) after co-incubation for 24 hours. […] (B) Confocal microscopy assessment of FITC-labeled peptide accumulation in tumor cell lines (rat glioma C6, mouse glioma GL261, human glioblastoma U87 and U251) after co-incubation for 24 hours. […] (C) Analysis of the peptides uptake by human U87 glioblastoma cells following co-incubation for 24 hours.
To evaluate the mHsp70-mediated uptake of the peptides prior to co-incubation with either TKD or RAS70 peptides cells were pre-treated with anti-Hsp70 antibodies (SPA-810, SPA-815) that are known to target the membrane-bound chaperone on cancer cells ([37]). […] The tripeptide RGD (Arg-Gly-Asp) motif is known to bind to integrins, including αvβ3 and αvβ5 expressed on brain tumor cells and tumor endothelial cells ([38], [39]). […] As expected, we observed the decrease of NGL-RGD and RAS70 internalization by tumor cells but not of TKD or NGL peptides ( Figure 6C ).

For data set [4], the system named is GL261 (mouse glioma) cells. In words: Flow cytometry of FITC-labeled peptide internalization, 24 h. Format: cell-based. As to conditions: 50 μg/mL, M ± SE, 3 independent experiments. How it is done:
as §1, §2, §3

Data set [5] concerns human glioblastoma U251 cells. The data set is described as above. Format: cell-based. As to conditions: 50 μg/mL, M ± SE, 3 independent experiments. How it is done: as §1, §2, §3
Data set [6] relates to C6 (rat glioma) cells. The description is as above. Type of data set: cell-based. The note with it: 50 μg/mL, M ± SE, 3 independent experiments. The method, then:
as §1, §2, §3

`CC(C)C[C@H](NC(=O)[C@H](CC(C)C)NC(=O)[C@H](CC(N)=O)NC(=O)[C@H](CC(N)=O)NC(=O)[C@H](CC(=O)O)NC(=O)[C@H](CCCCN)NC(=O)[C@@H](N)[C@@H](C)O)C(=O)NCC(=O)N[C@@H](CCCNC(=N)N)C(=O)N[C@@H](Cc1ccccc1)C(=O)N[C@@H](CCC(=O)O)C(=O)N[C@@H](CC(C)C)C(=O)N[C@@H](CO)C(=O)NCC(=O)NCCC(=O)N[C@@H](CCCNC(=N)N)C(=O)NCC(=O)N[C@@H](CC(=O)O)C(=O)O` [RAS70]: the “accumulation of peptide in mHsp70-negative cells” value in data set [1] is “did not detect the accumulation”. The “fluorescently labeled tumor cells in the lower chamber” value in data set [2] is given as 578 ± 67 cells. Moreover, the “peptide internalization after pre-treatment with anti-Hsp70 antibodies” value in data set [3] (U87, 24 hours) is on record as “significant decrease”. Besides, the “peptide internalization after pre-treatment with anti-αvβ3 and -αvβ5 antibodies” value in data set [3] (U87, 24 hours, cells pre-treated with anti-αvβ3 (LM609) and anti-αvβ5 (P1F6) mAbs (1:200)) is “decrease”. The “peptide uptake after pre-treatment with both anti-Hsp70 and anti-αvβ3/-αvβ5 mAbs” value in data set [3] (U87, 24 hours) is “significant abrogation”. In addition, the “mean fluorescence intensity (MFI), internalization of FITC-labeled peptide” value is 2999 ± 209 in data set [3], 3012 ± 182 in data set [4], 3678 ± 212 in data set [5] and 2671 ± 201 in data set [6].

On to `CC(C)C[C@H](NC(=O)[C@H](CC(C)C)NC(=O)[C@H](CC(N)=O)NC(=O)[C@H](CC(N)=O)NC(=O)[C@H](CC(=O)O)NC(=O)[C@H](CCCCN)NC(=O)[C@@H](N)[C@@H](C)O)C(=O)NCC(=O)N[C@@H](CCCNC(=N)N)C(=O)N[C@@H](Cc1ccccc1)C(=O)N[C@@H](CCC(=O)O)C(=O)N[C@@H](CC(C)C)C(=O)N[C@@H](CO)C(=O)NCC(=O)O` [TKD], for which, in data set [1], the “accumulation of peptide in mHsp70-negative cells” value was “did not detect the accumulation”. Besides, the “fluorescently labeled tumor cells in the lower chamber” value in data set [2] amounted to 337 ± 38 cells. Moreover, the “peptide internalization after pre-treatment with anti-Hsp70 antibodies” value in data set [3] (U87, 24 hours) is recorded as “significant decrease”. The “peptide uptake after pre-treatment with both anti-Hsp70 and anti-αvβ3/-αvβ5 mAbs” value in data set [3] (U87, 24 hours) is “significant abrogation”. Further, the “mean fluorescence intensity (MFI), internalization of FITC-labeled peptide” value in data set [3] stood at 2145 ± 189; in data set [4] it was 2099 ± 107; in data set [5], 2373 ± 201; in data set [6], 2120 ± 152.
